Data reported in patent US10202371B2, “Oxazolidin-2-one-pyrimidine derivatives and the use thereof as phosphatidylinositol-3-kinase inhibitors” (Novartis AG, priority 2012, dated 2019).

Target: human mTOR (GST-mTOR) (Homo sapiens (Human), UniProt P42345)
Experiment: Binding assay mTor (Lanthascreen kinase binding assay)
Conditions: Tracer-314
Source text: Catalytically active human PI3Kα, PI3Kβ, PI3Kδ, and mTOR were cloned, expressed and purtified as described (Maira S M, Stauffer F, Brueggen J, Furet P, Schnell C, Fritsch C, Brachmann S, Chène P, de Pover A, Schoemaker K, Fabbro D, Gabriel D, Simonen M, Murphy L, Finan P, Sellers W, Garcia-Echeverria C (2008), Mol Cancer Ther. 7:1851-63 and Maira S M, Pecchi S, Brueggen J, Huh K, Schnell C, Fritsch C, Nagel T, Wiesmann M, Brachmann S, Dorsch M, Chène P, Schoemaker K, De Pover A, Menezes D, Fabbro D, Sellers W, Garcia-Echeverria C, Voliva CF (2011), Mol. Cancer Ther. accepted).
TR-FRET assays for protein kinases uses a long-lifetime lanthanide Terbium or Europium chelates as the donor species which overcome interference by compound autofluorescence or light scatter from precipitated compounds, by introducing a delay after excitation by a flashlamp excitation source. Results are often expressed as a ratio of the intensities of the acceptor and donor fluorophores. The ratiometric nature of such a value corrects for differences in assay volumes between wells, as well as corrects for quenching effects due to colored compounds.
Binding Assays are based on the binding and displacement of an Alexa Fluor® 647-labeled, ATP-competitive kinase inhibitors to the kinase of interest. Invitrogen's “Kinase Tracers” have been developed to address a wide range of kinase targets and are based on ATP-competitive kinase inhibitors, making them suitable for detection of any compounds that bind to the ATP site or to an allosteric site altering the conformation of the ATP site. Inhibitors that bind the ATP site include both Type I kinase inhibitors, which bind solely to the ATP site, and Type II inhibitors (e.g., Gleevec®/Imatinib, Sorafenib, BIRB-796), which bind to both the ATP site and a hydrophobic site exposed in the DFG-out (non-active) conformation. […] The sole exception was a substrate-competitive compound, and thus not a true allosteric inhibitor.
In contrast to most fluorescence-based kinase activity assays, LanthaScreen® Eu^3+ Kinase Binding Assays can be read continuously, which facilitates evaluation of compounds with slow binding kinetics. Also, unlike most activity assays, binding assays can be performed using either active or non-activated kinase preparations, which enables characterization of compounds that bind preferentially to non-activated kinases, such as Gleevec®/imatinib and some allosteric inhibitors.
In the Lanthascreen™ kinase binding assay, the donor (Eu^3+-anti-GST antibody) is excited at 340 nm and will transfer its energy to the acceptor (Alexa Fluor® 647-labeled ATP-competitive kinase inhibitor=Tracer-314). The emission from the Tracer-314 (Alexa Fluor® 647 inhibitor) can be monitored with a filter centered at 665 nm because it is located between the emission peaks of the donor, which is measured at 615/620 nm. The binding of both, the Tracer-314 and Eu^3+-anti-GST antibody, to the kinase results in a high degree of FRET from the Eu^3+-donor fluorophore to the Alexa-Fluor® 647-acceptor fluorophore on the Tracer-314. Binding of an inhibitor to the kinase competes for binding with the tracer, resulting in a loss of FRET.
50 nL of compound dilutions were dispensed onto white 384-well small volume polystyrene plate as described in section 2.2. Then 5 μL of GST-mTOR and Europium-anti-GST antibody followed by 5 μL of tracer-314 (final assay volume 10 μL) are incubated at RT. The standard reaction buffer for the Lanthascreen™ kinase binding assay contained 50 mM HEPES pH 7.5, 5 mM MgCl2, 1 mM EGTA, 0.01% Pluronic F-127. Plates are read 60 mins later in a Synergy2 reader using an integration time of 0.2 microseconds and a delay of 0.1 microseconds.
To calculate the emission ratio, the signal emitted at 665 nm from the acceptor (Alexa Fluor® 647-labeled Tracer-314) is divided by the signal emitted at 620 nm from the donor (Eu^3+ anti-GST antibody) […]

Structure (SMILES) | IC50
CCC1C(c2cccnc2)OC(=O)N1c1cc(-c2cnc(N)nc2C(F)(F)F)nc(N2CCOCC2)n1 (centres unmarked) [Example 8] | 960 nM
Nc1ncc(-c2cc(N3C(=O)O[C@@H](c4ccc(OCCCO)cc4)[C@@H]3CO)nc(N3CCOCC3)n2)c(C(F)(F)F)n1 [Example 14] | 490 nM
COCCOc1ccc([C@@H]2OC(=O)N(c3cc(-c4cnc(N)nc4C(F)(F)F)nc(N4CCOCC4)n3)[C@H]2CO)cc1 [Example 12] | 750 nM
COc1ccc([C@@H]2OC(=O)N(c3cc(-c4cnc(N)nc4C(F)(F)F)nc(N4CCOCC4)n3)[C@H]2CO)cc1 [Example 3, (4S,5S)-3-(2′-Amino-2-morpholino-4′-(trifluoromethyl)-[4,5′-bipyrimidin]-6-yl)-4-(hydroxymethyl)-5-(4-methoxyphenyl)oxazolidin-2-one] | 850 nM
C[C@H]1[C@H](c2ccccc2)OC(=O)N1c1cc(-c2cnc(N)nc2C(F)(F)F)nc(N2CCOCC2)n1 [Example 5] | 2250 nM
Nc1ncc(-c2cc(N3C(=O)O[C@@H](c4ccccc4)[C@@H]3CO)nc(N3CCOCC3)n2)c(C(F)(F)F)n1 [Example 10] | 1010 nM
CC[C@H]1[C@H](c2nccs2)OC(=O)N1c1cc(-c2cnc(N)nc2C(F)(F)F)nc(N2CCOCC2)n1 [Example 7] | 2700 nM
C[C@H]1[C@H](c2nccs2)OC(=O)N1c1cc(-c2cnc(N)nc2C(F)(F)F)nc(N2CCOCC2)n1 [Example 1, (4S,5R)-3-(2′-Amino-2-morpholin-4-yl-4′-trifluoromethyl-[4,5′]bipyrimidinyl-6-yl)-4-methyl-5-thiazol-2-yl-oxazolidin-2-one] | 251 nM
CC[C@H]1[C@H](c2ccc(OC)cc2)OC(=O)N1c1cc(-c2cnc(N)nc2C(F)(F)F)nc(N2CCOCC2)n1 (relative stereo) [Example 2, (4S*,5S*)-3-(2′-amino-2-morpholino-4′-(trifluoromethyl)-[4,5′-bipyrimidin]-6-yl)-4-ethyl-5-(4-methoxyphenyl)oxazolidin-2-one] | 2800 nM
C[C@H]1[C@@H](c2nccs2)OC(=O)N1c1cc(-c2cnc(N)nc2C(F)(F)F)nc(N2CCOCC2)n1 [Example 11] | 870 nM
Nc1ncc(-c2cc(N3C(=O)O[C@@H](c4ccc(OCCO)cc4)[C@@H]3CO)nc(N3CCOCC3)n2)c(C(F)(F)F)n1 [Example 13] | 230 nM
